From PMC5039417, “Aberrant Glycosylation of Anchor-Optimized MUC1 Peptides Can Enhance Antigen Binding Affinity and Reverse Tolerance to Cytotoxic T Lymphocytes” (Biomolecules, 2016)
No end group written: not given here.

Assays:
[1] = system: MCF-7 cells (MUC1+, HLA-A*0201+); assay: 51Cr-release assay, peptide-induced CTLs from normal donors; type: cell-based, human
[2] = system: CD8+ T cells (IFNγ production); assay: IFNγ ELISpot of peptide-induced CD8+ T cells; type: cell-based, human
Procedure: Figure 5 Production of IFNγ by CD8^+ T cells was induced in response to MUC1 peptides. Following two rounds of stimulation, CD8^+ cells were maintained for 24 h on an ELISpot plate. Spot numbers were determined using computer assisted video image analysis by Zellnet Consulting Inc. There were no significance differences compared to the negative peptide (p > 0.05).
IFNγ ELISpot plates from Mabtech (Stockholm, Sweden) were used to detect IFNγ producing MUC1-specific CTLs. The assay was performed using the capture IFNγ antibody as recommended by the manufacturer. Day five post R2-stimulation, the CTLs were washed three times and 1 × 10^5 cells were transferred to the washed and blocked IFNγ ELISpot plates and incubated at 37 °C in a 5% CO2 incubator for 24 h. After incubation the plates were washed with PBS, incubated with alkaline phosphatase-conjugated IFNγ antibody at room temperature for two hours and then spots were detected with BCIP/NBT substrate. Spot numbers were determined using computer assisted video image analysis by Zellnet Consulting Inc. (Fort Lee, NJ, USA).

[3] = system: CD8+ T cells from HLA-A*0201 breast cancer patients; assay: 3H-thymidine proliferation of T cells from breast cancer patients; type: cell-based, human; settings: 23 HLA-A*0201 breast cancer patients, DCs pulsed with 10 μg/mL peptide + IL-2, 5 days, vs no-peptide stimulated T cells
Procedure: CD8^+ T cells from the patients were incubated with irradiated autologous DCs pulsed with the various MUC1 peptides (10 μg/mL) plus IL-2 for 5 days and proliferation was assessed by measuring the ^3H-thymidine uptake. T cells from ~38% of the breast cancer patients responded to the selected MUC1 peptides (Figure 6).
Figure 6 T cells from ~38% of the HLA-A2^+ breast cancer patients regardless of their stage, ER/PR and HER2 status responded to the selected MUC1 peptides. 1 × 10^5 T cells were incubated with irradiated […] DCs pulsed with the various MUC1 peptides (10 μg/mL) + IL-2 for 5 days in complete media. Proliferation was assessed by measuring the ^3H-thymidine uptake and is reported as fold increase in counts per minute. The dotted line indicates the two-fold increase in proliferation.

[4] = system: MCF-7 cells (HLA-A*0201+, MUC1+); assay: 51Cr-release assay, peptide-induced CTLs from breast cancer patients; type: cell-based, human
Source text: Figure 7 In vitro stimulation of T cells from HLA-A*0201^+ cancer patients (peri-menopausal) with anchor-optimized and/or glycosylated MUC1 peptides elicited strong CTL activity. (A) PBLs underwent two rounds of stimulation and sorted CD8^+ T cells were subjected to a ^51Cr-release assay. Targets were MCF-7 cells (HLA-A*0201^+, MUC1^+). Effector:target ratio was 100:1 and spontaneous release was less than 25% of complete lysis. The filled triangles designate normal individuals and the open triangles designate breast cancer patients. […] Following two rounds of stimulation, CD8^+ cells were maintained for 24 h on an ELISpot plate. Spot numbers were determined using computer assisted video image analysis by Zellnet Consulting Inc. (FortLee, NJ, USA). There was no evidence of a significance difference in spot numbers between cancer patients and healthy controls (Wilcoxon rank sum test; p > 0.05).
An optimized protocol for the generation of peptide-specific CTLs was developed that relied upon autologous DCs for stimulation. PBMCs (2 × 10^6 cells/mL of AIM V medium) were transferred to a 24-well plate and incubated for 2 h at 37 °C. Non-adherent lymphocytes were washed off with PBS and the adherent cells were cultured in X-VIVO medium containing GM-CSF (1000 U/mL) and IL-4 (1000 U/mL) to generate DCs. […] DCs were analyzed by flow cytometry for appropriate maturation markers. […] Five to seven days later, T cells were analyzed for cytolytic activity by ^51Cr-release assay and interferon gamma production by ELISPOT.
The lytic activity of the in vitro stimulated peptide-specific CTLs was measured by a standard six-hour ^51Cr-release assay. […] After incubation, 30 μL of supernatant was transferred onto LUMA plates (Perkin Elmer, Waltham, MA, USA) and radioactive ^51Cr release was measured in a Topcount Micro-scintillation Counter (Packard Biosciences, Shelton, CT, USA). […]

[5] = molecular target: HLA-A*0201 molecules on T2 cells (Homo sapiens, UniProt P04439, D140Y/D185E/D98H/E176V/E277Q/G131W/G231S/I119V/I121R/I166T/I218V/L300P/L318F/N151K/N90K/P208A/P217A/Q86G/Q94H/R138H/R169H/T345S); assay: MHC stabilization assay on T2 cells (fluorescence index); type: cell-based; settings: peptide 0–100 μg/mL, β2-microglobulin 1 μg/mL, 18 h 37 °C, BB7.2 antibody, flow cytometry
Procedure: Figure 1 MUC1 peptides (anchor-optimized and glycosylated) stabilized HLA-A*0201 molecules on T2 cells. Increasing amounts of the MUC1 peptides (0–100 μg/mL) and β2-microglobulin (1 μg/mL) were incubated with T2 cells for 18 h at 37 °C prior to staining with the HLA-A*0201 antibody (clone BB7.2, Pharmingen). Mean fluorescence intensity (MFI) was determined by flow cytometry and the fluorescence index (FI) was calculated from the formula: FI = (FS − FB)/(FT2 − FB) × 100 where FS is the MFI of the test peptides, FB is the non-peptide isotype antibody-stained control MFI, and FT2 is the non-peptide HLA-A*0201 antibody-stained control MFI.
Peptide binding to HLA-A*0201 was analyzed using TAP1- and TAP2-deficient T2 cells which express the HLA-A*0201 allele. […] Binding of the peptides was measured using flow cytometry for upregulation of HLA-A2 surface expression on the T2 cells. […] Mean fluorescence intensity (MFI) was determined and the fluorescence index (FI) was calculated from the formula: FI = (FS − FB)/(FT2 − FB) × 100 where FS is the MFI of the test peptides, FB is the no-peptide isotype antibody-stained control MFI, and FT2 is the no-peptide HLA-A2 antibody-stained control MFI [52].

HLA-A*0201 molecules = HLA-A*0201 molecules (Homo sapiens, UniProt P04439, D140Y/D185E/D98H/E176V/E277Q/G131W/G231S/I119V/I121R/I166T/I218V/L300P/L318F/N151K/N90K/P208A/P217A/Q86G/Q94H/R138H/R169H/T345S); assay: Competitive peptide inhibition assay (F1-peptide displacement on T2 cells)

STAPT(Tn)VHNV [P2, Tn-glycosylated MUC1 peptide]
Lysis of MCF-7 cells by CTLs elicited with the peptide, one individual ([1]; CTLs from one normal individual, E:T 100:1): low lysis
IFNγ production by CTLs elicited by the peptide, one individual ([2]; CTLs from one normal individual): strong production of IFNγ
IFNγ production by CD8+ T cells generated to the peptide ([2]; normal donors, two rounds of stimulation, 24 h on ELISpot plate): showed production of IFNγ

STAPPVHNV [P1]
Patients responding with >2-fold increase in proliferation [3]: 8/23
Lysis of MCF-7 cells by T cells from cancer samples ([4]; all three breast cancer patient samples, E:T 100:1): greater than 30%
Activation of lytic T cells from breast cancer patients ([4]; three breast cancer patients, MCF-7 targets): effectively activated lytic T cells from all three breast cancer patients
Lysis of MCF-7 cells by CTLs elicited with the peptide ([1]; 8 normal post-menopausal HLA-A*0201 women, E:T 100:1, 6 h, p = 0.008 vs negative control P11): did not elicit lytic T cells
Binding to HLA-A*0201 on T2 cells by fluorescence index (FI) [5]: bound moderately
IC50 (concentration producing 50% inhibition of F1-peptide binding) (HLA-A*0201 molecules; T2 cells, F1-peptide 100 ng/mL, β2-microglobulin 1 μg/mL, competitor 0–100 μg/mL, flow cytometry MFI, Prism): 10.13 µg/mL
Affinity class of binder to HLA-A*0201 (HLA-A*0201 molecules; scored from IC50 in the competition assay on T2 cells): medium (“medium affinity binders” with IC50 of ≥to 5 μg/mL and <15 μg/mL)

CC(C)C[C@H](NC(=O)[C@@H](N)CO)C(=O)N[C@@H](C)C(=O)N1CCC[C@H]1C(=O)N1CCC[C@H]1C(=O)N[C@H](C(=O)N[C@@H](Cc1c[nH]cn1)C(=O)N[C@@H](CC(N)=O)C(=O)N[C@H](C(=O)O)C(C)C)C(C)C [P15]
IC50 (HLA-A*0201 molecules): 363 nM

SLSYTNPAV [P7]
IC50 (HLA-A*0201 molecules): 441 nM

ALGSTAPPV [P9, unmodified native MUC1 degenerate TR peptide, reference compound]
% of Donors with at Least 30% Cell Kill ([1]; normal donors (n = 8), MCF-7 targets, E:T 100:1, 30% cell kill considered a response): 12.50%

LLLLTVLTV [P5]
IC50 (HLA-A*0201 molecules): 11100 nM
